Laboratory results: US20160362416A1, “ANTIVIRAL COMPOUNDS” (Gilead Sciences, Inc., priority 2012, published 2016)

Key:
[1] = system: NS5A chimeric genotype 2a JFH-1 replicon with genotype 2a J6 strain NS5A gene (M31); test: HCV genotype 2a J6 NS5A chimeric replicon assay, transient (t); type: cell-based; conditions: Hepatitis C virus, 72 h, read-out: 2a J6 (t) (nM)
[2] = system: NS5A chimeric genotype 2a JFH-1 replicon with genotype 2b MD2b-1 strain NS5A gene (M31); test: HCV genotype 2b NS5A chimeric replicon assay, transient (t); type: cell-based; conditions: Hepatitis C virus, 72 h, read-out: 2b (t) (nM)
Procedure, shortened: (§1)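 Stable 1b Con1 RLuc replicon cells, or Huh-Lunet cells transiently transfected with chimeric replicons (Con1 backbone carrying 3a S52 or 4a ED43 NS5A; JFH-1 backbone carrying 2b MD2b-1 NS5A, M31), treated with 3-fold dilutions for 72 h. Renilla luciferase read after lysis; EC50 by non-linear regression.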

[3] = system: stable HCV 2a JFH-1 Rluc replicon cells (L31 present in NS5A); test: HCV genotype 2a JFH-1 RLuc replicon reporter assay; type: cell-based; conditions: Hepatitis C virus, 72 h, read-out: 2a JFH (nM)
[4] = system: stable HCV 1a RLuc replicon cells (genotype 1a H77 replicon); test: HCV genotype 1a RLuc replicon reporter assay; type: cell-based; conditions: Hepatitis C virus; stable genotype 1a H77 RLuc replicon cells, 72 hours
[5] = system: Y93N in genotype 1a NS5A replicon; test: Resistance mutant replicon assay, genotype 1a NS5A Y93N; type: cell-based, HCV; conditions: Hepatitis C virus, read-out: 1a Y93N (nM)
Procedure, shortened: (§2)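 Cured-51 cells transfected with mutant Pi-RLuc replicon RNA; 72 h compound; lysis, Renilla luciferase; EC50 by non-linear regression.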

[6] = system: NS5A chimeric genotype 1b Con1 replicon with genotype 3a S52 strain NS5A gene; test: HCV genotype 3a NS5A chimeric replicon assay; type: cell-based; conditions: Hepatitis C virus, 72 h, read-out: 3a (nM)
Procedure, shortened: as §1

[7] = system: L31V/Y93H in genotype 1b NS5A replicon; test: Resistance mutant replicon assay, genotype 1b NS5A L31V/Y93H; type: cell-based, HCV; conditions: Hepatitis C virus, read-out: 1b L31V/Y93H (nM)
Protocol: Evaluation of cell-based anti-HCV activity: Antiviral potency (EC50) was determined using a Renilla luciferase (RLuc)-based HCV replicon reporter assay. To perform the assay for genotype 1 and 2a JFH-1, stable HCV 1a RLuc replicon cells (harboring a dicistronic genotype 1a H77 replicon that encodes a RLuc reporter), stable HCV lb RLuc replicon cells (harboring a dicistronic genotype 1b Conl replicon that encodes a RLuc reporter), or stable HCV 2a JFH-1 Rluc replicon cells (harboring a dicistronic genotype 2a JFH-1 replicon that encodes a RLuc reporter; with L31 present in NS5A) were dispensed into 384-well plates for EC50 assays. To perform the assay for genotype 2a (with M31 present in NS5A) or 2b, NS5A chimeric genotype 2a JFH-1 replicons that encodes a RLuc-Neo reporter and either genotype 2a J6 strain NS5A gene or genotype 2b MD2b-1 strain NS5A gene (both with M31 present) respectively, were either transiently transfected (t) into Huh-Lunet cells or were established as stably replicating replicon cells (s) is provided. Either cells were dispensed into 384-well plates for EC50 assays. To perform the assay for genotype 3 and 4, NS5A chimeric genotype 1b Conl replicons that encodes a Pi-RLuc reporter and either genotype 3a S52 strain NS5A gene or genotype 4a ED43 strain NS5A gene respectively, were transiently transfected (t) into Huh-Lunet cells, which were subsequently dispensed into 384-well plates. Compounds were dissolved in DMSO at a concentration of 10 mM and diluted in DMSO either manually or using an automated pipeting instrument. Serially 3-fold diluted compounds were either manually mixed with cell culture media and added to the seeded cells or directly added to the cells using an automated instrument. DMSO was used as a negative (solvent; no inhibition) control, and the protease inhibitor ITMN-191 was included at a concentration >100×EC50 as a positive control. 72 hours later, cells were lysed and Renilla luciferase activity quantified as recommended by the manufacturer (Promega-Madison, Wis.). Non-linear regression was performed to calculate EC50 values.
To determine the antiviral potency (EC50) against resistance mutants, resistance mutations, including M28T, Q30R, Q30H, Q30E, L31M, Y93C, Y93H, and Y93N in genotype 1a NS5A, Y93H and L31V/Y93H in genotype 1b NS5A, and Y93H for in genotype 3a NS5A, were introduced individually into either 1a Pi-Rluc or 1b Pi-Rluc replicons by site directed mutagenesis. Replicon RNA of each resistant mutant was transiently transfected into Huh-7-derived cured-51 cells and antiviral potency was determined on these transfected cells as described above.

[8] = IV and PO single dose pharmacokinetic studies in SD rats; type: in vivo; conditions: Sprague-Dawley, rat, plasma, male SD rats, IV infusion 1 mg/kg, oral gavage 2 mg/kg, read-out: Rat % F
Procedure, shortened: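 Fasted male Sprague-Dawley rats (n=3/group) dosed IV by 30-min jugular infusion at 1 mg/kg or by oral gavage at 2 mg/kg, in ethanol/PEG 400 vehicles at pH 2.0–2.2. Serial plasma to 24 h quantified by LC/MS/MS (SRM); non-compartmental analysis, linear-trapezoidal AUC, %F as oral vs IV AUC.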

[9] = system: Y93H in genotype 3a NS5A replicon; test: Resistance mutant replicon assay, genotype 3a NS5A Y93H; type: cell-based, HCV; conditions: Hepatitis C virus, read-out: 3a Y93H (nM)
Procedure, shortened: as §2

[10] = system: Y93H in genotype 1a NS5A replicon; test: Resistance mutant replicon assay, genotype 1a NS5A Y93H; type: cell-based, HCV; conditions: Hepatitis C virus, read-out: 1a Y93H (nM)
Procedure, shortened: as §2

| SMILES | EC50 [1] [nM] | EC50 [2] [nM] | EC50 [3] [nM] | EC50 [4] [nM] | EC50 [5] [nM] | EC50 [6] [nM] | EC50 [7] [nM] | bioavailability [8] [%] | EC50 [9] [nM] | EC50 [10] [nM] |
| --- | --- | --- | --- | --- | --- | --- | --- | --- | --- | --- |
| COC(=O)N[C@H](C(=O)N1[C@@H](C)CC[C@H]1c1ncc(-c2ccc3c(c2)COc2cc4c(ccc5nc([C@@H]6CC[C@H](C)N6C(=O)[C@@H](NC(=O)OC)C6CC(C)O[C@H](C)C6)[nH]c54)cc2-3)[nH]1)C(C)C (stereo in doubt) [Example AQ, Methyl {(2S)-1-[(2S,5S)-2-(5-{2-[(2S,5S)-1-{(2S)-2-[(2R,6R)-2,6-dimethyltetrahydro-2H-pyran-4-yl]-2-[(methoxycarbonyl)amino]acetyl}-5-methylpyrrolidin-2-yl]-1,11-dihydroisochromeno[4′,3′:6,7]naphtho[1,2-d]imidazol-9-yl}-1H-imidazol-2-yl)-5-methylpyrrolidin-1-yl]-3-methyl-1-oxobutan-2-yl}carbamate] | 0.011 | 0.016 | 0.016 | 0.019 | 0.337 | 0.017 | 0.908 | 22.9 | 0.703 | 0.206 |
| CC[C@H]1CC[C@@H](c2nc3ccc4cc5c(cc4c3[nH]2)OCc2cc(-c3cnc([C@@H]4CC[C@H](C)N4C(=O)[C@@H](NC(=O)OC)C(C)C)[nH]3)ccc2-5)N1C(=O)[C@@H](NC(=O)OC)C1CCOCC1 [Comp 3, reference compound] | 0.061 | – | 0.019 | 0.021 | – | 0.065 | – | 46.6 | 14.1 | 2.54 |
| CC[C@H](C)[C@H](NC(=O)OC)C(=O)N1[C@@H](C)CC[C@H]1c1ncc(-c2ccc3c(c2)COc2cc4c(ccc5nc([C@@H]6CC[C@H](C)N6C(=O)[C@@H](NC(=O)OC)C6CCOCC6)[nH]c54)cc2-3)[nH]1 [Comp 4, reference compound] | 0.026 | – | 0.018 | 0.023 | 1.06 | 0.043 | – | 22.1 | 0.695 | 0.978 |
| CC[C@H](C)[C@H](NC(=O)OC)C(=O)N1[C@@H](C)CC[C@H]1c1nc2ccc3cc4c(cc3c2[nH]1)OCc1cc(-c2cnc([C@@H]3CC[C@H](C)N3C(=O)[C@@H](NC(=O)OC)C3CCOCC3)[nH]2)ccc1-4 [Comp 12, reference compound] | 0.032 | – | 0.009 | 0.013 | 1.38 | 0.026 | 0.097 | 5.64 | 17.7 | 1.24 |
| CC[C@H](C)[C@H](NC(=O)OC)C(=O)N1[C@@H](C)CC[C@H]1c1ncc(-c2ccc3c(c2)COc2cc4c(ccc5nc([C@@H]6CC[C@H](C)N6C(=O)[C@@H](NC(=O)OC)C6C[C@@H](C)O[C@H](C)C6)[nH]c54)cc2-3)[nH]1 (stereo partly drawn) [Example AA, Methyl {(2S,3S)-1-[(2S,5S)-2-(5-{2-[(2S,5S)-1-{(2S)-2-[(2R,6R)-2,6-dimethyltetrahydro-2H-pyran-4-yl]-2-[(methoxycarbonyl)amino]acetyl}-5-methylpyrrolidin-2-yl]-1,11-dihydroisochromeno[4′,3′:6,7]naphtho[1,2-d]imidazol-9-yl}-1H-imidazol-2-yl)-5-methylpyrrolidin-1-yl]-3-methyl-1-oxopentan-2-yl}carbamate] | 0.006 | 0.014 | 0.011 | 0.016 | 0.57 | 0.014 | 0.498 | 28.1 | 0.544 | 0.322 |
| COC(=O)N[C@H](C(=O)N1[C@@H](C)CC[C@H]1c1ncc(-c2ccc3c(c2)COc2cc4c(ccc5nc([C@@H]6CC[C@H](C)N6C(=O)[C@@H](NC(=O)OC)[C@H]6C[C@@H](C)O[C@@H](C)C6)[nH]c54)cc2-3)[nH]1)C(C)C [Example AM, Methyl {(2S)-1-[(2S,5S)-2-(5-{2-[(2S,5S)-1-{(2S)-2-[(2R,6S)-2,6-dimethyltetrahydro-2H-pyran-4-yl]-2-[(methoxycarbonyl)amino]acetyl}-5-methylpyrrolidin-2-yl]-1,11-dihydroisochromeno[4′,3′:6,7]naphtho[1,2-d]imidazol-9-yl}-1H-imidazol-2-yl)-5-methylpyrrolidin-1-yl]-3-methyl-1-oxobutan-2-yl}carbamate] | 0.008 | 0.008 | 0.005 | 0.009 | 4.65 | 0.011 | 11.6 | 21.9 | 8.06 | – |
| COC(=O)N[C@H](C(=O)N1[C@@H](C)CC[C@H]1c1nc2ccc3cc4c(cc3c2[nH]1)OCc1cc(-c2cnc([C@@H]3CC[C@H](C)N3C(=O)[C@@H](NC(=O)OC)[C@H]3C[C@@H](C)O[C@@H](C)C3)[nH]2)ccc1-4)C(C)C [Example AO, Methyl {(2S)-1-[(2S,5S)-2-(9-{2-[(2S,5S)-1-{(2S)-2-[(2R,6S)-2,6-dimethyltetrahydro-2H-pyran-4-yl]-2-[(methoxycarbonyl)amino]acetyl}-5-methylpyrrolidin-2-yl]-1H-imidazol-5-yl}-1,11-dihydroisochromeno[4′,3′:6,7]naphtho[1,2-d]imidazol-2-yl)-5-methylpyrrolidin-1-yl]-3-methyl-1-oxobutan-2-yl}carbamate] | 0.017 | 0.015 | 0.008 | 0.012 | 9.03 | 0.021 | 17.5 | 50.3 | 9.06 | – |
| COC[C@H]1C[C@@H](c2ncc(-c3ccc4c(c3)COc3cc5c(ccc6nc([C@@H]7CC[C@H](C)N7C(=O)[C@@H](NC(=O)OC)C7C[C@@H](C)O[C@H](C)C7)[nH]c65)cc3-4)[nH]2)N(C(=O)[C@@H](NC(=O)OC)C2C[C@@H](C)O[C@H](C)C2)C1 (stereo partly drawn) [Example BH, Methyl {(1S)-1-[(2R,6R)-2,6-dimethyltetrahydro-2H-pyran-4-yl]-2-[(2S,5S)-2-(9-{2-[(2S,4S)-1-{(2S)-2-[(2R,6R)-2,6-dimethyltetrahydro-2H-pyran-4-yl]-2-[(methoxycarbonyl)amino]acetyl}-4-(methoxymethyl)pyrrolidin-2-yl]-1H-imidazol-5-yl}-1,11-dihydroisochromeno[4′,3′:6,7]naphtho[1,2-d]imidazol-2-yl)-5-methylpyrrolidin-1-yl]-2-oxoethyl}carbamate] | 0.055 | – | 0.013 | 0.053 | 0.082 | 0.056 | – | 2.7 | 0.612 | 0.04 |
